Laboratory results as given in patent US8889705B2, “Noscapine analogs and their use in treating cancers” (Emory University, priority 2007, dated 2014).

Biological target: T1, tubulin
T1 construct: other: 2 μM tubulin, 45 min at 37° C., double reciprocal plot; rate and extent of tubulin polymerization; other: 25 μM or 100 μM
Assay: Tubulin binding assay (fluorescence titration, quenching of intrinsic tubulin fluorescence)
Design: species or system mammalian
Conditions: 2 μM tubulin, 45 min at 37° C., double reciprocal plot; read-out: dissociation constant (Kd) for binding to tubulin
Description: Fluorescence titration for determining the tubulin binding parameters was performed as described previously (Gupta and Panda, 2002). In brief, 9-nitro-nos (0-100 μM) was incubated with 2 μM tubulin in 25 mM PIPES, pH 6.8, 3 mM MgSO4 and 1 mM EGTA for 45 min at 37° C. The relative intrinsic fluorescence intensity of tubulin was then monitored in a JASCO FP-6500 spectrofluorometer (JASCO, Tokyo, Japan) using a cuvette of 0.3-cm path length, and the excitation wavelength was 295 nm. The fluorescence emission intensity of 9-nitro-nos at this excitation wavelength was negligible. A 0.3-cm path-length cuvette was used to minimize the inner filter effects caused by the absorbance of 9-nitro-nos at higher concentration ranges. In addition, the inner filter effects were corrected using a formula Fcorrected=Fobserved·antilog [(Aex+Aem)/2], where Aex is the absorbance at the excitation wavelength and Aem is the absorbance at the emission wavelength. The dissociation constant (Kd) was determined by the formula: 1/B=Kd/[free ligand]+1, where B is the fractional occupancy and [free ligand] is the concentration of free noscapine or 9-nitro-nos. The fractional occupancy (B) was determined by the formula B=ΔF/ΔFmax, where ΔF is the change in fluorescence intensity when tubulin and its ligand are in equilibrium and ΔFmax is the value of maximum fluorescence change when tubulin is completely bound with its ligand. ΔFmax was calculated by plotting 1/ΔF versus 1/ligand using total ligand concentration as the first estimate of free ligand concentration.
Fluorescence titration for determining the tubulin binding parameters was performed as described previously. In brief, 9-F-nos, 9-Cl-nos, 9-Br-nos or 9-I-nos (0-100 μM) was incubated with 2 μM tubulin in 25 mM PIPES, pH 6.8, 3 mM MgSO4, and 1 mM EGTA for 45 min at 37° C. The relative intrinsic fluorescence intensity of tubulin was then monitored in a JASCO FP-6500 spectrofluorometer (JASCO, Tokyo, Japan) using a cuvette of 0.3-cm path length, and the excitation wavelength was 295 nm. The fluorescence emission intensity of noscapine and its derivatives at this excitation wavelength was negligible. A 0.3-cm path-length cuvette was used to minimize the inner filter effects caused by the absorbance of these agents at higher concentration ranges. In addition, the inner filter effects were corrected using a formula F corrected=F observe·antilog [(Aex+Aem)/2], where Aex is the absorbance at the excitation wavelength and Aem is the absorbance at the emission wavelength. The dissociation constant (Kd) was determined by the formula: 1/B=Kd/[free ligand]+1, where B is the fractional occupancy and [free ligand] is the concentration of 9-F-nos, 9-Cl-nos, 9-Br-nos or 9-I-nos. The fractional occupancy (B) was determined by the formula B=ΔF/ΔFmax, where ΔF is the change in fluorescence intensity when tubulin and its ligand are in equilibrium and ΔFmax is the value of maximum fluorescence change when tubulin is completely bound with its ligand. ΔFmax was calculated by plotting 1/ΔF versus 1/[free ligand].

Structure (SMILES): COc1ccc2c(c1OC)C(=O)O[C@@H]2[C@H]1c2c(c([N+](=O)[O-])c3c(c2OC)OCO3)CCN1C [9-nitro-nos, (S)-6,7-dimethoxy-3-((R)-4-methoxy-6-methyl-9-nitro-5,6,7,8-tetrahydro-[1,3]dioxolo[4,5-g]isoquinolin-5-yl)isobenzofuran-1(3H)-one]
- Kd: 86 ± 6 µM
